From ChEMBL document CHEMBL1201862, “PubChem BioAssay data set” (2004)
Active and inactive are the calls of the source.

Legend:
[1] = Vero cell cytotoxicity, dose response, cytotoxicity control for M. tuberculosis growth inhibitor project, Vero cells, purified and synthesized compounds, set 4 (AID 504854); assay type: functional; conditions: Mycobacterium tuberculosis
[2] = Vero E6 cell cytotoxicity, dose response, cytotoxicity control for non-replicating M. tuberculosis project, secondary assay (AID 492998); assay type: functional, VeroE6; conditions: Vero C1008
[3] = HepG2 cell cytotoxicity, cytotoxicity control, set 4 (AID 504910); assay type: functional; conditions: Mycobacterium tuberculosis
[4] = cytotoxicity toward NIH3T3 fibroblasts, dose response, counter-screen, cell-based, ATP luminescence, mouse fibroblasts (AID 2010); assay type: functional;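 note: cells exposed to compound for about 90 hours before reading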
[5] = THP-1 cell cytotoxicity, dose response, cytotoxicity control for non-replicating M. tuberculosis project (AID 489025); assay type: functional
[6] = inhibitors of firefly luciferase expression or activity, dose response, H4 neuroglioma cells, luminescence (AID 1990); assay type: functional, cell-based
[7] = A Cell Based Secondary Assay to Explore Cytotoxicity in THP-1 Cells of Compounds that Modulate Mycobacterium tuberculosis in Media Containing Glycerol versus Media without Glycerol (2).; assay type: functional
[8] = HepG2 cell cytotoxicity, dose response, cytotoxicity control for non-replicating M. tuberculosis project (AID 489018); assay type: functional; conditions: Mycobacterium tuberculosis
Streptococcus = experiment: Group A Streptococcus viability loss, dose response, counter-screen for streptokinase expression inhibitor project, luminescence, BacTiterGlo (AID 1915); assay type: functional, organism-based;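 note: potency for reduction of bacterial viability or growth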
[9] = Luminescence Cell-Based Dose Response HTS to Identify Inhibitors of 5'UTR Stem-Loop Driven Prion Protein mRNA Translation in H4 Neuroglioblastoma Cells. [Related pubchem assays: 1827 (Project Summary), 1813 (Primary HTS)]; assay type: functional
[10] = THP-1 cell cytotoxicity, dose response, cytotoxicity control, set 3 (AID 504852); assay type: functional; conditions: Mycobacterium tuberculosis
[11] = tested on: Streptococcus sp. 'group A'; experiment: growth inhibition of control SK(-) GAS strain, dose response, counter-screen for streptokinase expression inhibitor project, luminescence, kanamycin, BacTiterGlo, confirmation (AID 1900); assay type: functional, organism-based
[12] = inhibitors of intracellular T. cruzi replication, confirmation, NIH3T3 host cells, beta-gal luminescence (AID 2044); assay type: functional, cell-based;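 note: intracellular parasites grown in NIH/3T3 mouse fibroblasts as host cells; luminescent beta-galactosidase reporter signal from transgenic T. cruzi replicating inside host cells; inhibitors lower the luminescence signal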
Streptokinase A = molecular target: T1, Streptokinase A (Streptococcus pyogenes serotype M1, UniProt P10520); experiment: S. pyogenes streptokinase expression inhibitors, potency, dose response, plasminogen activation absorbance, OD405 (AID 1914); assay type: functional, Streptococcus pyogenes M1 GAS;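 note: secreted streptokinase activity via plasminogen activation per viability signal from cell pellet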
T1 sequence (P10520 whole entry): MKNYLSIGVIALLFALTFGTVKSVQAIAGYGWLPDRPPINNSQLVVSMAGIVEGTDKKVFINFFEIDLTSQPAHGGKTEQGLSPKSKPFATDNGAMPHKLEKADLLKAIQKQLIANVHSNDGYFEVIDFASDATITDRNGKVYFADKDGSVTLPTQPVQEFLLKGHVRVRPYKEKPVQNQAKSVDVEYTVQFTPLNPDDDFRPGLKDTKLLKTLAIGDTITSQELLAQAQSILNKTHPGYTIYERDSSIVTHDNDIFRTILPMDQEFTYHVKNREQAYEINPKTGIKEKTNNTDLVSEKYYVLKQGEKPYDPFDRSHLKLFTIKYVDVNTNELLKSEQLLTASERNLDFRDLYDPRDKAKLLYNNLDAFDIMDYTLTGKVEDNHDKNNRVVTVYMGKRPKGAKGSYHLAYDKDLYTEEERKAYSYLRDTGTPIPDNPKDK

[13] = THP-1 cell cytotoxicity, cytotoxicity control, set 4 (AID 504911); assay type: functional; conditions: Mycobacterium tuberculosis
[14] = microbe, parasite or virus in culture; assay type: functional; conditions: Mycobacterium tuberculosis
[15] = Vero cell cytotoxicity, cytotoxicity control for M. tuberculosis inhibitor project, purified and synthesized samples, set 3 (AID 504684); assay type: functional
[16] = inhibitors of SNCA 5'UTR-driven reporter translation, confirmation, H4 neuroglioma cells, luminescence (AID 1988); assay type: functional, cell-based
INS1 = experiment: beta cell apoptosis inhibitors, cytokine rescue, dose response, luminescence, retest (AID 449756); assay type: functional, cell-based; conditions: Rattus norvegicus;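 note: cell death triggered by IL-1 beta plus TNF-alpha plus IFN-gamma mixture; protective hits raise ATP signal compared with cytokine alone wells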
cells = assay type: functional
[17] = Vero cell cytotoxicity, dose response, cytotoxicity control for M. tuberculosis growth inhibitor project, Vero cells, purified and synthesized compounds, set 5 (AID 504909); assay type: functional; conditions: Mycobacterium tuberculosis
[18] = A Cell Based Secondary Assay to Explore Cytotoxicity in HepG2 Cells of Compounds that Modulate Mycobacterium tuberculosis in Media Containing Glycerol versus Media without Glycerol (2).; assay type: functional
[19] = HepG2 cell cytotoxicity, dose response, cytotoxicity control, set 3 (AID 504853); assay type: functional; conditions: Mycobacterium tuberculosis
[20] = molecular target: T2, High affinity choline transporter 1 (Homo sapiens, UniProt Q9GZV3); experiment: CHT inhibitors, dose response, cell-based, 10-point CRC, membrane potential dye (AID 588401); assay type: functional;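 note: membrane potential dye fluorescence of choline-evoked depolarization via CHT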
T2 sequence (Q9GZV3 whole entry): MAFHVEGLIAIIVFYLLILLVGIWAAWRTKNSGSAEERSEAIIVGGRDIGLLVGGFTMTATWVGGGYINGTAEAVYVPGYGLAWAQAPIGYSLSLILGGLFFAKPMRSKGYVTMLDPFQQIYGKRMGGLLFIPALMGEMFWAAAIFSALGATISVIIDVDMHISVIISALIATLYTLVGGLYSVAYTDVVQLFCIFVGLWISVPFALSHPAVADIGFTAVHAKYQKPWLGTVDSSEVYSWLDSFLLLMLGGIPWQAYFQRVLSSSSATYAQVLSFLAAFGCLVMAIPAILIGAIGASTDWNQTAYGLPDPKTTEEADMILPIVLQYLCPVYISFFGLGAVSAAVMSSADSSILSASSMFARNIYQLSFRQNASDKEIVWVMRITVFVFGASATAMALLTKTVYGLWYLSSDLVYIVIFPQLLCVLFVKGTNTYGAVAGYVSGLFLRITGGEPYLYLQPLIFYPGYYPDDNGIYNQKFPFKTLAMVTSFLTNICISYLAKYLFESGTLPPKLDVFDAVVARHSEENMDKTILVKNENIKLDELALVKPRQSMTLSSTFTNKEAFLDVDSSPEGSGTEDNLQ

[21] = molecular target: T2, High affinity choline transporter 1; experiment: CHT inhibitors, dose response, cell-based, 5-point CRC, membrane potential dye (AID 504840); assay type: functional

c1ccc(N=C2N=C(Nc3ccccn3)c3ccccc32)nc1
CC50 [1]: > 100 µM (active) | CC50 [2]: 0.5 µM (active) | CC50 [3]: > 41.3 µM (active) | EC50 [4]: 17.7 µM (active) | CC50 [5]: 0.148 µM (active) | EC50 [6]: 10.5 µM (active) | CC50 [7]: < 0.2 µM (active) | CC50 [8]: < 0.039 µM (active) | EC50 (Streptococcus): > 150 µM (not active) | EC50 [9]: > 120 µM (not active) | CC50 [10]: > 71.4 µM (active) | EC50 [11]: 5.41 µM (active) | EC50 [12]: 0.687 µM (active) | EC50 (Streptokinase A): 22.2 µM (active) | CC50 [13]: > 76.9 µM (active) | CC50 [14]: > 40 µM (active) | CC50 [15]: < 0.2 µM (active) | EC50 [16]: 13.4 µM (active) | AC50 (INS1): 0.795 µM (active) | IC50 (cells): < 0.1 µM (active) | CC50 [17]: 60.5 µM (active) | CC50 [18]: < 0.1 µM (active) | CC50 [19]: 21.2 µM (active)

Cc1ccc[n+](CC(=O)c2ccc(Br)cc2)c1
IC50 [20]: 0.713 µM (active) | IC50 [21]: 0.0775 µM (inconclusive)
